Where no end group is shown, it is not given here.
Tests used:
[1] = test system: bacterial adhesion to HEp2 cells; conditions: cited from earlier work
[2] = test system: S. epidermidis GISE strain; assay: Rat subcutaneous Dacron graft infection model, GISE strain; format: in vivo; conditions: for Bacterial concentration, GISE: 2×10^7 bacteria, explanted day 7; for Bacterial concentration, GISE / Bacterial load on graft, GISE: mean ± SD; for Bacterial load on graft, GISE: Table 3A S. epidermidis
Description: (§1) Rats (Wistar adult males (300-350 g), n=15/experimental group) were anaesthetized, hair on their back shaved and the skin cleansed with 10% povidone-iodine solution. A subcutaneous pocket was made on the side of the median line by a 1.5 cm incision. Aseptically, 1 cm^2 sterile collagen-sealed Dacron graft (Albograft™, Sorin Biomedica Cardio, S.p.A., Saluggi VC, Italy) was implanted into the pocket. […] Pockets were closed by skin clips and 1 ml sterile saline solution with or without 2×10^7 bacteria was inoculated onto the graft surface using a tuberculin syringe to create a subcutaneous fluid-filled pocket. Some of the animals that had grafts soaked only with RIP or saline were injected intraperitoneally with antibiotics (cefazolin 30 mg/kg, imipenem 30 mg/kg, teicoplanin 10 mg/kg, levofloxacin 10 mg/kg). Grafts were explanted 7 days following implantation.
(§2) The explanted grafts were placed in sterile tubes, washed in sterile saline solution, placed in tubes containing 10 ml of phosphate-buffered saline solution and sonicated for 5 min to remove the adherent bacteria from the grafts. Quantitation of viable bacteria was performed by culturing serial 10-fold dilutions (0.1 ml) of the bacterial suspension on blood agar plates. All plates were incubated at 37° C. for 48 hr and evaluated for the presence of the strain. Bacteria were quantitated by counting the number of colony forming unites (CFU) per plate. To determine if bacteria were efficiently removed from the graft, washed and sonicated grafts were observed under a Nikon Eclipse E 600 optical microscope (Nikon Y-THS, Japan).
(§3) Quantitative culture results of the in vivo experiments were presented as mean+SD of the mean. Comparisons of the results were performed by the analysis of variance (ANOVA) on the log-transformed data. Statistical analysis was performed for in vitro adhesion assays using Student's t-Test by Microsoft Excel (Microsoft, Wash.). Significance was accepted when the P value was <0.05.
(§4) To test if RIP can prevent graft-associated infections, Dacron grafts were coated with or without RIP, and with or without various types of antibiotics (for local prophylaxis experiments). Coated grafts were implanted in rats, bacteria injected into the implants, implants removed after a week, and bacterial load determined. Alternatively, Dacron grafts were first coated with RIP, bacteria injected, and antibiotics were administered by the intraperitoneal route (for parenteral prophylaxis experiments). As a negative control, grafts were implanted without local or parenteral RIP/antibiotics prophylaxis and no bacteria were injected. As a positive control, grafts were implanted, bacteria were injected, but no RIP/antibiotics prophylaxis was given.
Animals (15/group) received a Dacron-graft implanted in a subcutaneous pocket. Graft was subsequently infected with either S. epidermidis (tested on MSSE, MRSE and GISE) or with S. aureus (tested on MSSA, MRSA and GISA). […]

S. aureus Smith Diffuse = conditions: mice; cited from earlier work
S. aureus MSSA = assay: Rat subcutaneous Dacron graft infection model, MSSA strain; format: in vivo; conditions: Table 3B S. aureus, mean ± SD
Description: as §1, with “implantation. Estimated RIP that adhered to graft was 10-26 μg.” for “implantation.”
as §2
(§5) Animals (15/group) received a Dacron-graft implanted in a subcutaneous pocket. Graft was subsequently infected with either S. epidermidis (tested on MSSE, MRSE and GISE) or with S. aureus (tested on MSSA, MRSA and GISA). The Dacron-graft prior to implantation was soaked in saline with or without 20 mg/l of RIP and some animals received […] of RIP i.p. as a prophylaxis treatment.

[3] = test system: bacterial adhesion to polystyrene, silicone and polyurethane; conditions: cited from earlier work
S. aureus MRSA = assay: Rat subcutaneous Dacron graft infection model, MRSA strain; format: in vivo; conditions: Table 3B S. aureus, mean ± SD
Description: as §1, with “implantation. Estimated RIP that adhered to graft was 10-26 μg.” for “implantation.”
as §2, §5

S. aureus GISA = assay: Rat subcutaneous Dacron graft infection model, GISA strain; format: in vivo; conditions: Table 3B S. aureus, mean ± SD
Description: as §1, with “implantation. Estimated RIP that adhered to graft was 10-26 μg.” for “implantation.”
as §2, §5

S. aureus 8325-4 = conditions: rabbits; cited from earlier work
[4] = test system: S. epidermidis MRSE strain; assay: Rat subcutaneous Dacron graft infection model, MRSE strain; format: in vivo; conditions: for Bacterial concentration, MRSE: 2×10^7 bacteria, explanted day 7; for Bacterial concentration, MRSE / Bacterial load on graft, MRSE: mean ± SD; for Bacterial load on graft, MRSE: Table 3A S. epidermidis
Description: as §1, §2, §3, §4, §5

[5] = A. Local prophylaxis: graft soaked 20 min in RIP 10 mg/l and/or antibiotic (mupirocin 100, quinupristin-dalfopristin 50, levofloxacin 30, rifampin 5 mg/l), rats
[6] = B. Parenteral prophylaxis: antibiotic intraperitoneally (cefazolin 30, imipenem 30, teicoplanin 10, levofloxacin 10 mg/kg), RIP as 10 mg/l graft soak, rats
[7] = RIP local (graft soaked in 20 mg/l RIP)
[8] = RIP parenteral (10 mg/l RIP i.p.)
[9] = peptide-soaked/coated Dacron graft (RIP 10 mg/l), no antibiotic, rats, day 7

YSPWTNF(—NH2) (YSPWTNF-NH2) [RIP]
Bacterial adhesion to eukaryotic cells [1]: decreased | Bacterial concentration, GISE [2, 5]: 6.2 ± 2.4 ×10^4 CFU/ml | Bacterial concentration, GISE [2, 6]: 6.2 ± 2 ×10^4 CFU/ml | Bacterial load on graft, GISE [2, 7]: 0.46 ± 0.13 ×10^4 CFU/ml | Bacterial load on graft, GISE ([2]; RIP local + RIP parenteral): 0.00 ± 0 ×10^4 CFU/ml | Bacterial load on graft, GISE [2, 8]: 0.31 ± 0.6 ×10^4 CFU/ml | Quantitative culture results of explanted graft, GISE strain [2, 9]: 6.2×10^4±2.0×10^4 CFU/ml | RIP graft treatment inhibiting bacteria better than parenteral antibiotics prophylaxis ([2]; rats inoculated with GISE): 10 to 100 fold | Suppressing S. aureus infection: cellulitis (S. aureus Smith Diffuse): extremely effective | Bacterial load on graft, MSSE (S. aureus MSSA; [7]): 0.55 ± 0.19 ×10^4 CFU/ml | Bacterial load on graft, MSSE (S. aureus MSSA; RIP local + RIP parenteral): 0.00 ± 0 ×10^4 CFU/ml | Bacterial load on graft, MSSE (S. aureus MSSA; [8]): 0.045 ± 0.009 ×10^4 CFU/ml | Bacterial adhesion to plastic [3]: decreased | Bacterial load on graft, MRSE (S. aureus MRSA; [7]): 0.62 ± 0.21 ×10^4 CFU/ml | Bacterial load on graft, MRSE (S. aureus MRSA; RIP local + RIP parenteral): 0.00 ± 0 ×10^4 CFU/ml | Bacterial load on graft, MRSE (S. aureus MRSA; [8]): 0.29 ± 0.088 ×10^4 CFU/ml | Bacterial load on graft, GISE (S. aureus GISA; [7]): 0.70 ± 0.28 ×10^4 CFU/ml | Bacterial load on graft, GISE (S. aureus GISA; RIP local + RIP parenteral): 0.00 ± 0 ×10^4 CFU/ml | Bacterial load on graft, GISE (S. aureus GISA; [8]): 0.49 ± 0.11 ×10^4 CFU/ml | Suppressing S. aureus infection: keratitis (S. aureus 8325-4): extremely effective | Bacterial concentration, MRSE [4, 5]: 0.74 ± 0.18 ×10^4 CFU/ml | Bacterial concentration, MRSE [4, 6]: 0.74 ± 0.18 ×10^4 CFU/ml | Bacterial load on graft, MRSE [4, 7]: 0.087 ± 0.023 ×10^4 CFU/ml | Bacterial load on graft, MRSE ([4]; RIP local + RIP parenteral): 0.00 ± 0 ×10^4 CFU/ml | Bacterial load on graft, MRSE [4, 8]: 0.052 ± 0.017 ×10^4 CFU/ml | Quantitative culture results of explanted graft, MRSE strain [4, 9]: 7.4×10^3±1.8×10^3 CFU/ml

— patent publication US8067015B2, “Methods and compositions for the treatment and prevention of Staphylococcus and other bacterial infections” (priority 1997, dated 2011)
